From the NIST ThermoML archive (doi:10.1016/j.jct.2015.03.019)
Numbers after ± are expanded uncertainties.

Assay: molar heat capacity at constant pressure
Conditions: 101.33 kPa, Crystal, Small (less than 1 g) adiabatic calorimetry

CC(C)(C)c1ccc(Oc2ccccc2)cc1 [4-tert-butylphenyl phenyl ether]
Conditions | molar heat capacity at constant pressure [J/K/mol]
46.48 K | 67.56 ± 0.62
47.28 K | 68.56 ± 0.63
48.08 K | 69.68 ± 0.64
48.87 K | 70.7 ± 0.65
49.67 K | 71.74 ± 0.67
50 K | 72.09 ± 0.5
50.47 K | 72.8 ± 0.67
51.27 K | 73.72 ± 0.68
52.07 K | 74.77 ± 0.69
52.87 K | 75.83 ± 0.7
53.67 K | 77.23 ± 0.71
56.08 K | 80.21 ± 0.73
56.88 K | 81.22 ± 0.74
57.68 K | 82.24 ± 0.75
58.49 K | 83.23 ± 0.75
59.3 K | 84.31 ± 0.75
60 K | 85.31 ± 0.58
60.1 K | 85.31 ± 0.75
60.91 K | 86.3 ± 0.75
61.71 K | 87.3 ± 0.83
62.51 K | 88.3 ± 0.83
64.11 K | 90.88 ± 0.83
64.92 K | 91.87 ± 0.83
65.72 K | 92.71 ± 0.83
66.52 K | 93.62 ± 0.83
67.33 K | 94.45 ± 0.83
68.13 K | 95.12 ± 0.83
68.94 K | 96.12 ± 0.91
69.74 K | 96.95 ± 0.91
70 K | 97.28 ± 0.5
70.74 K | 97.94 ± 0.91
71.95 K | 99.19 ± 0.91
73.16 K | 100.61 ± 0.91
74.36 K | 101.94 ± 0.91
75.56 K | 102.6 ± 0.91
76.77 K | 103.6 ± 0.91
77.98 K | 104.6 ± 0.91
79.18 K | 105.68 ± 1
80 K | 106.59 ± 0.58
80.21 K | 106.67 ± 0.58
80.39 K | 106.92 ± 0.58
81.01 K | 107.17 ± 0.67
81.6 K | 108.09 ± 0.67
81.81 K | 108.17 ± 0.67
82.62 K | 108.84 ± 0.67
82.8 K | 109.25 ± 0.67
83.42 K | 109.58 ± 0.67
84.01 K | 110.25 ± 0.67
85.83 K | 111.83 ± 0.67
86.63 K | 112.66 ± 0.67
87.43 K | 113.33 ± 0.67
88.23 K | 114.16 ± 0.67
89.03 K | 115.07 ± 0.67
89.84 K | 115.9 ± 0.67
90 K | 115.99 ± 0.58
90.64 K | 116.65 ± 0.67
91.44 K | 117.48 ± 0.67
92.24 K | 118.23 ± 0.67
93.05 K | 119.15 ± 0.67
93.85 K | 119.73 ± 0.67
94.65 K | 120.48 ± 0.67
95.46 K | 121.14 ± 0.67
96.26 K | 121.97 ± 0.67
97.06 K | 122.72 ± 0.67
97.87 K | 123.22 ± 0.67
98.67 K | 124.05 ± 0.67
99.47 K | 125.13 ± 0.75
100 K | 125.71 ± 0.58
100.28 K | 125.8 ± 0.75
101.28 K | 127.13 ± 0.75
102.48 K | 128.13 ± 0.75
103.69 K | 129.21 ± 0.75
104.89 K | 130.45 ± 0.75
106.1 K | 131.45 ± 0.75
107.32 K | 132.78 ± 0.75
108.53 K | 133.86 ± 0.75
109.74 K | 134.86 ± 0.75
110 K | 135.19 ± 0.67
110.96 K | 136.11 ± 0.75
112.17 K | 137.19 ± 0.75
113.39 K | 138.27 ± 0.75
114.61 K | 139.43 ± 0.75
115.83 K | 140.51 ± 0.75
117.05 K | 141.6 ± 0.75
118.28 K | 142.59 ± 0.83
119.5 K | 143.76 ± 0.83
